Measured values as given in ChEMBL document CHEMBL1201862, “PubChem BioAssay data set” (2004).
Each block holds one molecule with its values, some of them ahead of it. The source made the active and inactive calls.

Legend:
Phospholipase D2 [1] = target: T1, Phospholipase D2 (Homo sapiens, UniProt O14939); experiment: PLD2 inhibitor potency in cells, dose response (AID 602147); type: functional;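 note: cellular assay in HEK293 cells overexpressing GFP-tagged PLD2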
Phospholipase D1 [2] = target: T2, Phospholipase D1 (Homo sapiens, UniProt Q13393); experiment: PLD1 inhibitor potency in cells, dose response (AID 602151); type: functional;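 note: cellular PLD1 assay in Calu-1 cells stimulated with PMA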
T2 sequence (Q13393 whole entry): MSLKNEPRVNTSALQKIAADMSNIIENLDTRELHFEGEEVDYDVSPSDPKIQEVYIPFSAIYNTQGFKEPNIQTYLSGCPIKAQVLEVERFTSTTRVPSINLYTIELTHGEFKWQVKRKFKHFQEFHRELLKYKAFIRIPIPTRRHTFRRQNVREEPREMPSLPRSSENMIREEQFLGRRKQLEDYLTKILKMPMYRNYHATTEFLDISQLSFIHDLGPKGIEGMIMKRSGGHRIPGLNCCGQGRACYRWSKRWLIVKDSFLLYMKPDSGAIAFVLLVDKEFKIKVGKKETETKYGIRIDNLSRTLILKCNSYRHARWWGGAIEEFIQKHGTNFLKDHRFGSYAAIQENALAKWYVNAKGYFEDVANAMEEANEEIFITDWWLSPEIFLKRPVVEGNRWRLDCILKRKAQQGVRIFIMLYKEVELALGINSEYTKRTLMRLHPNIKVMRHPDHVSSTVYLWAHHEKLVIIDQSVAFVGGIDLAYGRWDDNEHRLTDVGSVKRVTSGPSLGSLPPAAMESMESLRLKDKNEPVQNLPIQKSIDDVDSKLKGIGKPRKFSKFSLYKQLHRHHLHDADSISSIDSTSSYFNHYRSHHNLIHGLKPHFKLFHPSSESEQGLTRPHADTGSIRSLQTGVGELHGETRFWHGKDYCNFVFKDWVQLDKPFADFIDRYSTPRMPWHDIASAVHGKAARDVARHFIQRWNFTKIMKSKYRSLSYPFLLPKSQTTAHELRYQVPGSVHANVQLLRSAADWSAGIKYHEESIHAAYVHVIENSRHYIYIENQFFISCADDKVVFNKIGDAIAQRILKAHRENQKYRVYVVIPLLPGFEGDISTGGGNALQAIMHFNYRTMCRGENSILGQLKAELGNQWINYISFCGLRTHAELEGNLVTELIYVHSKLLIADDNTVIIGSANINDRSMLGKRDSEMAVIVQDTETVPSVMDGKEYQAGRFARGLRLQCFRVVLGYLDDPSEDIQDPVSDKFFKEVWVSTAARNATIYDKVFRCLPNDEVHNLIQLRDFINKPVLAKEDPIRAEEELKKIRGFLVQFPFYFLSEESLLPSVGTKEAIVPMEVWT

Phospholipase D2 [3] = target: T1, Phospholipase D2; experiment: PLD2 purified enzyme concentration response. [Related pubchem assays (depositor defined):AID588854]; type: functional
Phospholipase D1 [4] = target: T2, Phospholipase D1; experiment: PLD1 purified enzyme concentration response. [Related pubchem assays (depositor defined):AID588854]; type: functional
Escherichia coli = experiment: microbe, parasite or virus in culture
[5] = target: T3, Mannose-6-phosphate isomerase (Homo sapiens, UniProt P34949); experiment: PMI enzyme inhibitors, confirmation, biochemical, fluorescence intensity (AID 1535)
T3 sequence (P34949 whole entry): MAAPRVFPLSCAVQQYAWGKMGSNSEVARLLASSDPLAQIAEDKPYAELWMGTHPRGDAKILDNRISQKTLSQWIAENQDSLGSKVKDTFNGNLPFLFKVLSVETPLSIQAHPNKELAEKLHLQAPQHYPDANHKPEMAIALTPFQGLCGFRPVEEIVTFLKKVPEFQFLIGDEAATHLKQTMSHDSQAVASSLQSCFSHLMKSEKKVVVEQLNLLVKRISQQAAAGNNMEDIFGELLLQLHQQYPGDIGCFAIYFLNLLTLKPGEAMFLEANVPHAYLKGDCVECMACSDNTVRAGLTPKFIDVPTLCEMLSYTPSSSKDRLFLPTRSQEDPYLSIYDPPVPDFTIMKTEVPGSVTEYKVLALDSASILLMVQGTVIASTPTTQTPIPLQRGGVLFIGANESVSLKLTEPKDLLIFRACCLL

[6] = target: T4, Sentrin-specific protease 7 (Homo sapiens, UniProt Q9BQF6); experiment: SENP7 protease inhibitors, SAR follow-up, biochemical, luminescence (AID 504497); type: functional
T4 sequence (Q9BQF6 whole entry): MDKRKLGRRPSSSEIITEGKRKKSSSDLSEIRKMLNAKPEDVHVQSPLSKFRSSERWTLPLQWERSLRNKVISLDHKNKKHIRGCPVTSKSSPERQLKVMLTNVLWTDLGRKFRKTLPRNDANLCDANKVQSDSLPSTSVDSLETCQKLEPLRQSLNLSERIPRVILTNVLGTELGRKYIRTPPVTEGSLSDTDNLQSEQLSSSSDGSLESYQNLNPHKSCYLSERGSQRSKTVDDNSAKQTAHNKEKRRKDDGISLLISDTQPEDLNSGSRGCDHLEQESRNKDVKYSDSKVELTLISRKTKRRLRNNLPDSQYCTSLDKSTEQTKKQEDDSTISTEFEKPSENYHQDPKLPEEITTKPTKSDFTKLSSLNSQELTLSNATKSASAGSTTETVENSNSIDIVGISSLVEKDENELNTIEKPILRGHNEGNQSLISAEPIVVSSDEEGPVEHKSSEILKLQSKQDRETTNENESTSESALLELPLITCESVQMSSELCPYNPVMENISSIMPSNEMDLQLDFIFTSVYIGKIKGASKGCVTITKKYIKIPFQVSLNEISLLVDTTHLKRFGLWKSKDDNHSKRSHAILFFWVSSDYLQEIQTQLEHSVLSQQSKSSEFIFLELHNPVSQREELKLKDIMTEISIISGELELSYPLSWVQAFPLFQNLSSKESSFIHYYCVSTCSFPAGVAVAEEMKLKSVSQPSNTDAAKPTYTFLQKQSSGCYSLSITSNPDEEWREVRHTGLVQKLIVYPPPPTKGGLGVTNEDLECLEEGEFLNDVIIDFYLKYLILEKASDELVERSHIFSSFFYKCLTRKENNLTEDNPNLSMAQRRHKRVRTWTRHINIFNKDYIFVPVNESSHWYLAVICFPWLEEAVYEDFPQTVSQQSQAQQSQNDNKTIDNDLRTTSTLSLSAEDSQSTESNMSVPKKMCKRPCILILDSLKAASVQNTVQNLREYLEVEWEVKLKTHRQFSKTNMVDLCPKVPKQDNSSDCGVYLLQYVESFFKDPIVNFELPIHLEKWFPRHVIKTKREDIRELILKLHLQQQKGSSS

[7] = target: T5, Sentrin-specific protease 6 (Homo sapiens, UniProt Q9GZR1); experiment: SAR Analysis of small molecule inhibitors of Sentrin-specific protease 6 (SENP6) using a Luminescent assay. [Related pubchem assays (depositor defined):AID2582, AID2599]; type: functional
T5 sequence (Q9GZR1 whole entry): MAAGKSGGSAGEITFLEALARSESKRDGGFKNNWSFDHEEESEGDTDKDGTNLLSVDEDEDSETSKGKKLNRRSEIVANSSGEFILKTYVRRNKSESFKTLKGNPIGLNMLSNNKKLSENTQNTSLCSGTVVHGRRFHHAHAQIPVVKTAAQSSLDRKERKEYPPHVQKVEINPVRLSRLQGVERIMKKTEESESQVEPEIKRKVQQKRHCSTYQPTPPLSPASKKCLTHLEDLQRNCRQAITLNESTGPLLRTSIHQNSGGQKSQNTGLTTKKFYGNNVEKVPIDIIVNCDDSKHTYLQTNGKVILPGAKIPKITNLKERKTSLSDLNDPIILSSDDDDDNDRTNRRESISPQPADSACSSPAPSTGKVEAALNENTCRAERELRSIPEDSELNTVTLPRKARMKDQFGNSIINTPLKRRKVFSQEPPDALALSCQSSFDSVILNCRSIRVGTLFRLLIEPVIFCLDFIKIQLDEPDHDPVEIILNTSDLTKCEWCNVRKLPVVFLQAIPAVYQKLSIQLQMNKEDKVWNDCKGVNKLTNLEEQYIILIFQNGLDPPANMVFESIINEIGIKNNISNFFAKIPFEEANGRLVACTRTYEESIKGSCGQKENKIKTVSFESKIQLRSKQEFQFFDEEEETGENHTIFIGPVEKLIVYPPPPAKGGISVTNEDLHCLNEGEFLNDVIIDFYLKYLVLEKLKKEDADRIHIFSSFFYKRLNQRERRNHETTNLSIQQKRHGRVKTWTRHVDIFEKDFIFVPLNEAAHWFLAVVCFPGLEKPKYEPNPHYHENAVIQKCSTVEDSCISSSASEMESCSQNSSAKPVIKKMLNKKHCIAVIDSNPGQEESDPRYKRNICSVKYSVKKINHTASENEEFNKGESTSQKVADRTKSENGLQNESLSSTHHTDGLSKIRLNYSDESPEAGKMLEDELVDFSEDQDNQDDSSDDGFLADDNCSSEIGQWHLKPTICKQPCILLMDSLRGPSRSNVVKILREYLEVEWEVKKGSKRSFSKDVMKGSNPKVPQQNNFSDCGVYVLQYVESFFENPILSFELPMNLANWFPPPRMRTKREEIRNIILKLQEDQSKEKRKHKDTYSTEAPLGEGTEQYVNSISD

Caspase-3 = target: T6, Caspase-3 (Homo sapiens, UniProt P42574); experiment: SAR Analysis of small molecule inhibitors of Sentrin-specific proteases (SENPs) using a Caspase-3 Selectivity assay. [Related pubchem assays (depositor defined):AID2540, AID2599, AID434973, AID489001]; type: functional
T6 sequence (P42574 whole entry): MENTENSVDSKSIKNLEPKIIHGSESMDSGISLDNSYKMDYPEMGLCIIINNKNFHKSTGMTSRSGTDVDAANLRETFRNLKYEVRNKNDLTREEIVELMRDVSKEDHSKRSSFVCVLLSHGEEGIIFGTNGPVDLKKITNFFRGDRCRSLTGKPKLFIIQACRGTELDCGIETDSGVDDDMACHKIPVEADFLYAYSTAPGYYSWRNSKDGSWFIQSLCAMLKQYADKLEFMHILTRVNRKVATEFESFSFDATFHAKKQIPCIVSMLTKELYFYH

[8] = target: T7, Sentrin-specific protease 8 (Homo sapiens, UniProt Q96LD8); experiment: SENP8 protease inhibitors, SAR follow-up, biochemical, luminescence (AID 504501); type: functional
T7 sequence (Q96LD8 whole entry): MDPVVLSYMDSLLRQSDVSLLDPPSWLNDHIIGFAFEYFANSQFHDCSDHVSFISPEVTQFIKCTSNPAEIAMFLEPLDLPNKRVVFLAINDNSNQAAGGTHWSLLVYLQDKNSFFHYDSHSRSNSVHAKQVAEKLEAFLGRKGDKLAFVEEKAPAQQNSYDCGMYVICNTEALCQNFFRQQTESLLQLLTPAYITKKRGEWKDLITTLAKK

T1 sequence (O14939 whole entry): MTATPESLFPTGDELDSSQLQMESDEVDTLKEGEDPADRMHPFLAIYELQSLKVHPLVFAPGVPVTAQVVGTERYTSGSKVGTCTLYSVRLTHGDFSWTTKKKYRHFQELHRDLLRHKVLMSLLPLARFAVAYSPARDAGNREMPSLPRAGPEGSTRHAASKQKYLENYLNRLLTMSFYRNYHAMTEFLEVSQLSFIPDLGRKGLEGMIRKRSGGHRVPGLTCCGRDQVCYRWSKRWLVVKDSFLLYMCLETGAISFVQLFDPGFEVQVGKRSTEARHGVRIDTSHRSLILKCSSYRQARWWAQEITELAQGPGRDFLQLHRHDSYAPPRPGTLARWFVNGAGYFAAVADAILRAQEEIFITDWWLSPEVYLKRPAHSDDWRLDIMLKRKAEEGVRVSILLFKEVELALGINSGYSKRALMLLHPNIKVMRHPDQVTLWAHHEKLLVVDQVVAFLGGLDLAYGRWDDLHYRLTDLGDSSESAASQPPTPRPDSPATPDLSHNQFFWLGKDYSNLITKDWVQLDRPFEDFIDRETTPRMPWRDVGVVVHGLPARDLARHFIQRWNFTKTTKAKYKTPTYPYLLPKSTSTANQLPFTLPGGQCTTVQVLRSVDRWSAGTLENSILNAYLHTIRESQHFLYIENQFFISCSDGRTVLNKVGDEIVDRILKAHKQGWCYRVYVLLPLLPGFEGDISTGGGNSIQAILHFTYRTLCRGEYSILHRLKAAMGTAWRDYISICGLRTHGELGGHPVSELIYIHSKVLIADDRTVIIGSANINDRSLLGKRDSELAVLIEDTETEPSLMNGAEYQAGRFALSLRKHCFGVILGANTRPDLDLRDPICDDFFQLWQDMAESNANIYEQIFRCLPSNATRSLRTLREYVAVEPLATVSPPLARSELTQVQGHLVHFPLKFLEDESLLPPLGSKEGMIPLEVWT

SMILES: C[C@@H](CN1CCC(n2c(=O)[nH]c3ccccc32)CC1)NC(=O)c1cc2ccccc2[nH]1
IC50 (Phospholipase D2 [1]): 0.066 µM (active) | IC50 (Phospholipase D1 [2]): 0.001 µM (active)

SMILES: O=C(NCCN1CCC2(CC1)C(=O)NCN2c1ccc(F)cc1)c1cnc2ccccc2c1
IC50 (Phospholipase D2 [3]): 0.14 µM (active) | IC50 (Phospholipase D1 [4]): 20 µM (active)

SMILES: CC(Sc1nnc(-c2ccccc2F)n1C1CC1)C(=O)NCc1ccco1 (centres undefined)
AC50 (Escherichia coli): 24.4 µM (active)

IC50 [5]: > 100 µM (inactive)
SMILES: Clc1nss/c1=N\c1ncccn1

IC50 [6]: > 99 µM (inactive) | IC50 [7]: > 99 µM (inactive) | IC50 (Caspase-3): > 99 µM (inactive)
SMILES: CCOc1ccc2nc(N(Cc3cccnc3)C(=O)c3ccc(Cl)s3)sc2c1
IC50 [8]: > 99 µM (inactive)

SMILES: O=C(NCCN1CCC2(CC1)C(=O)NCN2c1ccccc1)c1cc2ccccc2s1
IC50 (Phospholipase D2 [3]): 0.092 µM (active) | IC50 (Phospholipase D1 [4]): 4 µM (active)

SMILES: C[C@@H](CN1CCC(n2c(=O)[nH]c3ccccc32)CC1)NC(=O)C1C[C@H]1c1ccccc1 (some centres undefined)
IC50 (Phospholipase D2 [1]): 14.5 µM (active) | IC50 (Phospholipase D1 [2]): 0.088 µM (active)
